Test results as given in patent US10126303B2, “Methods for identifying compounds as modulators of SLC38A9 interactions” (Whitehead Institute for Biomedical Research, priority 2014, dated 2018).
Values after ≈ are worked out from the molar mass of the structure shown.

Columns and labels:
SLC38A9.1 = molecular target: T1, SLC38A9.1 (Homo sapiens, UniProt Q8NBW4); test: Competition of [3H]arginine transport by SLC38A9.1 proteoliposomes using unlabeled amino acids; format: biochemical; details: 0.5 μM [3H]arginine; 100 mM unlabeled amino acid; 75 min
T1 construct: made in house; host or cells: HEK-293T cells stably expressing FLAG-SLC38A9.1
T1 sequence (Q8NBW4 1-561): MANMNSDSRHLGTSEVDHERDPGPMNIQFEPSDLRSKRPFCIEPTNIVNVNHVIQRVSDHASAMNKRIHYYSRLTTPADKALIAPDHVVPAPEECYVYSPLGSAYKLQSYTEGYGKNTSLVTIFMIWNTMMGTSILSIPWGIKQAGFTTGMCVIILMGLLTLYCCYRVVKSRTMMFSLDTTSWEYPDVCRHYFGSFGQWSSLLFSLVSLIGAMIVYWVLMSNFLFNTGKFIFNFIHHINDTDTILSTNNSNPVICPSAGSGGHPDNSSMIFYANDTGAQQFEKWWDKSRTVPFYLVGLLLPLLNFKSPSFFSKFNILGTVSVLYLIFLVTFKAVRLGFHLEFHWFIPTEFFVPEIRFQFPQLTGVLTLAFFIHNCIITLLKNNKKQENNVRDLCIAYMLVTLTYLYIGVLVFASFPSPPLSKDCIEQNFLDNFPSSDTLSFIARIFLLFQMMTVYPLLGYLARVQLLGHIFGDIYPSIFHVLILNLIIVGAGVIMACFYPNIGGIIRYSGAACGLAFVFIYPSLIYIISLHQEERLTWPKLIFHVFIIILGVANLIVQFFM
Procedure: (§1) SLC38A9.1 proteoliposomes or liposome controls were centrifuged at 100,000 g for 30 min. in a TLA-100.3 rotor and resuspended in a smaller volume of outside buffer such that they could be added to a larger volume of 100 mM unlabeled amino acid (final concentration) supplemented with outside buffer components. […] At such high concentrations, it is important to adjust all amino acid solutions to pH 7.4. Assays were initiated by addition of 0.5 μM [^3H]arginine to the amino acid buffer solution followed by the addition of SLC38A9.1 proteoliposomes or liposome controls.
For steady-state kinetics experiments, time points were collected as described above and to assess substrate specificity, competition experiments were collected at 75 min. For efflux experiments, SLC38A9.1 proteoliposomes or liposome controls were loaded with [^3H]arginine as described above for an import assay for 1.5 hrs. To remove external amino acids, the reactions were applied to PD10 columns pre-equilibrated with outside buffer, and time points were collected as described above. Scintillation counts from liposome controls were subtracted from that of SLC38A9.1 proteoliposomes.

mTORC1 = test: Amino acid-induced activation of the mTORC1 pathway in SLC38A9-null HEK-293T cells (immunoblot); format: cell-based; details: CRISPR/CAS9 knockout, starved 50 min, stimulated 10 min, range of concentrations
Procedure: FIGS. 5A-SE depict the results of experiments arginine and related immunoblots depicting impairment of induced activation of the mTORC1 pathway. FIG. 5A depicts the time dependent uptake of [^3H]-arginine by proteoliposomes containing SCL38A9.1. FIG. SB, left panel, depicts the time course of [^3H]arginine uptake, given fixed [^3H]arginine (0.5 μM) and increasing concentrations of unlabeled arginine. FIG. 5B, right panel, depicts velocity, calculated from left panel, as a function of total arginine concentration. Data were fitted to the Michaelis-Menton equation. FIG. 5C depicts the time-dependent efflux of SLC38A9.1 proteoliposomes following 1.5 hr loading with 0.5 μM [^3H]arginine. FIG. 5D depicts the competition of 0.5 μM [^3H]arginine transport by SLC38A9.1 using 100 mM of indicated unlabeled amino acids. The error bars in FIGS. 5A-5D represent standard deviation derived from at least 3 measurements. […]
HEK-293T cells (750,000/well) were plated into 6 well dishes and transfected 16 hours later with 1 μg of pX459 expressing above guides using XtremeGene9. […] Clones were expanded and evaluated for knockout status by western analysis for SLC38A9. These clones were evaluated for amino acid response as described above.

[1] = Solubility limit of amino acid in the transport assay solution; format: physicochemical
Procedure: as §1

[2] = substrate: N=C(N)NCCC[C@H](N)C(=O)O; test: Steady-state kinetics of [3H]arginine uptake by SLC38A9.1 proteoliposomes; format: biochemical, human; details: other: [3H]arginine 0.5 μM plus increasing unlabeled arginine, 30° C.
Procedure: HEK-293T cells stably expressing FLAG-SLC38A9.1 were harvested as described above for immunoprecipitations, except cells were lysed in 40 mM HEPES pH 7.4, 0.5% Triton X-100, 1 mM DTT, and protease inhibitors. Following a 3 hr. immunoprecipitation, FLAG-affinity beads were washed twice for 5 min each in lysis buffer supplemented with 500 mM NaCl. Beads were equilibrated with inside buffer (20 mM MES pH 5, 90 mM KCl 10 mM NaCl) supplemented with 10% glycerol by washing them 5 times. FLAG-affinity purified SLC38A9.1 protein was eluted in glycerol-supplemented inside buffer containing 1 mg/mL FLAG peptide by rotation for 30 min. Protein was concentrated using Amicon centrifuge filters to about 1 mg/mL and snap-frozen in liquid nitrogen and stored at −80° C.
To form liposomes, chloroform-dissolved phosphatidylcholine (PC, 50 mg) was evaporated using dry nitrogen to yield a lipid film in a round bottom flask and desiccated overnight under vacuum. Lipids were hydrated in inside buffer at 50 mg/mL with light sonication in a water bath (Branson M2800H) and split into 100 μL aliquots in Eppendorf tubes. Aliquoted lipids were clarified using water bath sonication and recombined and extruded through a 100 nm membrane with 15 passes (Avanti 61000). […]

Molecule: N[C@@H](Cc1c[nH]cn1)C(=O)O [histidine]
- competition of radiolabelled arginine transport (SLC38A9.1): competed radiolabelled arginine transport to similar degrees as arginine

Molecule: CC(C)C[C@H](N)C(=O)O [leucine]
- competition of radiolabelled arginine transport (SLC38A9.1): modest effect
- activation of mTORC1 by the amino acid in SLC38A9 knockouts vs control cells (mTORC1): only blunted
- solubility [1]: ~130 mM (≈ 17.1 mg/mL)

Molecule: NCCCC[C@H](N)C(=O)O [lysine]
- competition of radiolabelled arginine transport (SLC38A9.1): competed radiolabelled arginine transport to similar degrees as arginine

Molecule: N=C(N)NCCC[C@H](N)C(=O)O [arginine]
- activation of mTORC1 by the amino acid in SLC38A9 knockouts vs control cells (mTORC1): strongly repressed at all arginine concentrations

Molecule: NCC(=O)O [glycine]
- competition of radiolabelled arginine transport (SLC38A9.1): least effective competitor

B1: SLC38A9.1 (Homo sapiens) (protein)
chain: MANMNSDSRHLGTSEVDHERDPGPMNIQFEPSDLRSKRPFCIEPTNIVNVNHVIQRVSDHASAMNKRIHYYSRLTTPADKALIAPDHVVPAPEECYVYSPLGSAYKLQSYTEGYGKNTSLVTIFMIWNTMMGTSILSIPWGIKQAGFTTGMCVIILMGLLTLYCCYRVVKSRTMMFSLDTTSWEYPDVCRHYFGSFGQWSSLLFSLVSLIGAMIVYWVLMSNFLFNTGKFIFNFIHHINDTDTILSTNNSNPVICPSAGSGGHPDNSSMIFYANDTGAQQFEKWWDKSRTVPFYLVGLLLPLLNFKSPSFFSKFNILGTVSVLYLIFLVTFKAVRLGFHLEFHWFIPTEFFVPEIRFQFPQLTGVLTLAFFIHNCIITLLKNNKKQENNVRDLCIAYMLVTLTYLYIGVLVFASFPSPPLSKDCIEQNFLDNFPSSDTLSFIARIFLLFQMMTVYPLLGYLARVQLLGHIFGDIYPSIFHVLILNLIIVGAGVIMACFYPNIGGIIRYSGAACGLAFVFIYPSLIYIISLHQEERLTWPKLIFHVFIIILGVANLIVQFFM
notes: made in house; host or cells: HEK-293T cells stably expressing FLAG-SLC38A9.1
- Km [2]: 39 mM
- kcat [2]: 0.03 s⁻¹
